# ChEMBL document CHEMBL1201862, “PubChem BioAssay data set” (2004)
#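 Five compound concentrations were applied to cells in 96-well plates for 48 hours; endpoints were derived by simple linear interpolation of the resulting dose-response curve. At the GI50, growth is halved.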 Activity calls are given as the source filed them. No stated cut-off is given here; in the data, active = GI50 up to about 1.1 µM and inactive = higher.
# Experiments:
# Test in all cases: NCI-60 cell line screen, 48 h
# [1] = tested on: HOP-62
# [2] = tested on: LOX IMVI
# [3] = tested on: NCI-H23
# [4] = tested on: Malme-3M
# [5] = tested on: SF-539
# [6] = tested on: SNB-78
# [7] = tested on: XF498
# [8] = tested on: RPMI-8226
# [9] = tested on: SF-295
# [10] = tested on: HCC 2998
# [11] = tested on: HOP-92
# [12] = tested on: TK-10
# [13] = tested on: UO-31
# [14] = tested on: SNB-75
# [15] = tested on: RXF 631
# [16] = tested on: A549
# [17] = tested on: LXFL 529
# [18] = tested on: HOP-18
# [19] = tested on: SK-OV-3
# [20] = tested on: HT-29
# [21] = tested on: SN12C
# [22] = tested on: IGROV-1
# [23] = tested on: A498
# [24] = tested on: 786-0
# [25] = tested on: NCI-H460
# [26] = tested on: COLO 205
# [27] = tested on: K562
# [28] = tested on: SK-MEL-5
# [29] = tested on: HCT-15
# [30] = tested on: OVCAR-8
# [31] = tested on: KM-20L2
# [32] = tested on: DMS-114
# [33] = tested on: HCT-116
# [34] = tested on: SNB-19
# [35] = tested on: KM12
# [36] = tested on: EKVX
# [37] = tested on: CAKI-1
# [38] = tested on: M14
# [39] = tested on: OVCAR-5
# [40] = tested on: U-251
# [41] = tested on: UACC-257
# [42] = tested on: OVCAR-3
# [43] = tested on: SW-620
# [44] = tested on: DLD-1
# [45] = tested on: HL-60
# [46] = tested on: SK-MEL-2
# [47] = tested on: ACHN
# [48] = tested on: UACC-62
# [49] = tested on: MOLT-4
# [50] = tested on: NCI-H226
# [51] = tested on: OVCAR-4
# [52] = tested on: RXF 393
# [53] = tested on: CCRF-CEM
# [54] = tested on: M19-MEL
compound,measurement,setting,value
CSc1nc(NC2OCC(OC(C)=O)C(OC(C)=O)C2OC(C)=O)c2c(OC(C)=O)c(C)c(=O)oc2n1 (centres undefined),GI50,[1],> 100 µM (inactive)
same,GI50,[2],> 100 µM (inactive)
same,GI50,[3],> 100 µM (inactive)
same,GI50,[4],> 100 µM (inactive)
same,GI50,[5],> 100 µM (inactive)
same,GI50,[6],> 100 µM (inactive)
same,GI50,[7],> 100 µM (inactive)
same,GI50,[8],> 100 µM (inactive)
same,GI50,[9],> 100 µM (inactive)
same,GI50,[10],> 100 µM (inactive)
same,GI50,[11],71.6 µM (inactive)
same,GI50,[12],> 100 µM (inactive)
same,GI50,[13],> 100 µM (inactive)
same,GI50,[14],> 100 µM (inactive)
same,GI50,[15],> 100 µM (inactive)
same,GI50,[16],> 100 µM (inactive)
same,GI50,[17],> 100 µM (inactive)
same,GI50,[18],> 100 µM (inactive)
same,GI50,[19],> 100 µM (inactive)
same,GI50,[20],> 100 µM (inactive)
same,GI50,[21],> 100 µM (inactive)
same,GI50,[22],> 100 µM (inactive)
same,GI50,[23],> 100 µM (inactive)
same,GI50,[24],> 100 µM (inactive)
same,GI50,[25],> 100 µM (inactive)
same,GI50,[26],> 100 µM (inactive)
same,GI50,[27],> 100 µM (inactive)
same,GI50,[28],> 100 µM (inactive)
same,GI50,[29],> 100 µM
same,GI50,[30],> 100 µM (inactive)
same,GI50,[31],> 100 µM (inactive)
same,GI50,[32],> 100 µM (inactive)
same,GI50,[33],> 100 µM (inactive)
same,GI50,[34],> 100 µM (inactive)
same,GI50,[35],> 100 µM (inactive)
same,GI50,[36],> 100 µM (inactive)
same,GI50,[37],> 100 µM (inactive)
same,GI50,[38],> 100 µM (inactive)
same,GI50,[39],> 100 µM (inactive)
same,GI50,[40],> 100 µM (inactive)
same,GI50,[41],> 100 µM (inactive)
same,GI50,[42],> 100 µM (inactive)
same,GI50,[43],> 100 µM (inactive)
same,GI50,[44],> 100 µM (inactive)
same,GI50,[45],> 100 µM (inactive)
same,GI50,[46],> 100 µM (inactive)
same,GI50,[47],> 100 µM (inactive)
same,GI50,[48],> 100 µM (inactive)
same,GI50,[49],> 100 µM (inactive)
same,GI50,[50],> 100 µM (inactive)
same,GI50,[51],> 100 µM (inactive)
same,GI50,[52],> 100 µM (inactive)
same,GI50,[53],> 100 µM (inactive)
same,GI50,[54],> 100 µM (inactive)
